Measurements as given in publication PMC7955072 (Nature Communications, 2021).
Values after ≈ are worked out from the molar mass of the structure shown. Values joined by “and” are separate entries in the source; they are usually repeats but may differ in a detail not shown here. Equal entries are not always repeated. “Also recorded” adds a separate entry of the source.

Tests used:
[1] = system: other AARS family members (LeuRS, ValRS); details: cited from earlier work
[2] = system: protein translation in rabbit reticulocyte lysate; assay: Rescue of RM-A-inhibited in vitro translation by C-terminal truncated ScIleRS or its variants; details: for Luciferase luminescence, 200 nM RM-A: replicates I-III
Method: (§1) After incubating at 30 °C for 1.5 h, 2.5 μL of the reaction was transferred to a 384-well plate and mixed with 25 μL of Luciferase Assay Reagent (Promega). The luminescence was read on a FlexStation 3 multimode microplate reader (Molecular Devices).

[3] = system: protein translation in rabbit reticulocyte lysate; assay: In vitro translation assay of luciferase mRNA in rabbit reticulocyte lysate; details: replicates I-III
Method: as §1

Candida albicans = system: Candida albicans; design: method as in PMID 1429226; details: pH 3.0; cited from earlier work
[4] = cited from earlier work
[5] = system: ScIleRS Thr571 to Tyr or Arg variants; assay: TSA, ScIleRS with Thr571 mutated to Tyr or Arg; format: binding, Saccharomyces cerevisiae
Method: The binding of RM-A to IleRS and the impact of intermediate analogue (Ile-AMS, MedChemExpress) or substrates on binding were evaluated by the fluorescence-based thermal shift assay (TSA). Ligand binding usually stabilizes the protein during the thermal denaturation process, and tighter binding usually causes a larger positive shift in the protein melting temperature (Tm)[45]. Briefly, mixtures with a final volume of 20 μL containing 150 mM NaCl, 100 mM HEPES (pH 7.5), 10% glycerol, 5 mM DTT, 2 μg of IleRS, 4× SYPRO orange fluorescence dye (Sigma-Aldrich) and different ligands (50 μM RM-A, 2 mM L-isoleucine, 2 mM ATP, or 50 μM Ile-AMS) were prepared in 96-well plates. The mixtures were incubated at 25 °C for 10 min and then heated from 25 °C to 95 °C at a rate of 1 °C/min. The fluorescence intensity was recorded by a StepOnePlus Real-Time PCR instrument (Life Technologies), and the maximums of the first derivatives were determined to calculate Tm values. Each Tm value was an average of triple assays.

[6] = system: ovarian cancer and prostate cancer growth; details: cited from earlier work
osteoclasts (OCs) = details: cited from earlier work
[7] = system: protein translation in rabbit reticulocyte lysate; assay: Rescue of RM-A-inhibited in vitro translation by C-terminal truncated human IleRS or its variants; details: 200 nM RM-A; 3 μM C-terminal truncated human IleRS R459A
Method: as §1

## CCCC[C@@]1(OC(=O)CCC(=O)O)CC[C@]2(CC[C@H](C)[C@@H](C/C=C(C)/C=C/[C@H](O)[C@@H](C)/C=C/C(=O)O)O2)O[C@H]1/C=C/C(C)=C/C(=O)O [RM-A, reveromycin A]
[1]
  inhibition of other AARS family members (LeuRS, ValRS): insensitive; also recorded: does not show significant inhibition
[2]; 200 nM RM-A, 3 μM C-terminal truncated ScIleRS variant with 600GRKMSKSLK608 replaced by -GSGS-
  protein translation rescued: approximately 80%
[2]; 1 μM LeuRS (control)
  Luciferase luminescence, 200 nM RM-A: 27.35 and 44.205 and 52.747
[2]; 1 μM ScIleRS D527A
  Luciferase luminescence, 200 nM RM-A: 63.694 and 45.571 and 34.895
[2]; 1 μM ScIleRS F48A
  Luciferase luminescence, 200 nM RM-A: 235.026 and 174.094 and 121.866
[2]; 1 μM ScIleRS F48Y
  Luciferase luminescence, 200 nM RM-A: 90.991 and 72.914 and 115.108
[2]; 1 μM ScIleRS F191A
  Luciferase luminescence, 200 nM RM-A: 156.784 and 298.475 and 281.964
[2]; 1 μM ScIleRS P90A
  Luciferase luminescence, 200 nM RM-A: 35.934 and 81.508 and 9.028
[2]; 1 μM ScIleRS R454A
  Luciferase luminescence, 200 nM RM-A: 2038.19 and 7956.68 and 7915.89
[2]; 1 μM ScIleRS R460A
  Luciferase luminescence, 200 nM RM-A: 63.694 and 82.028 and 79.355
[2]; 1 μM ScIleRS R462A
  Luciferase luminescence, 200 nM RM-A: 219.125 and 149.005 and 122.71
[2]; 1 μM ScIleRS T572A
  Luciferase luminescence, 200 nM RM-A: 2721.39 and 8649.69 and 8296.21
[2]; 1 μM ScIleRS V89A
  Luciferase luminescence, 200 nM RM-A: 11067.8 and 10750 and 22533.8
[2]; 1 μM ScIleRS W402A
  Luciferase luminescence, 200 nM RM-A: 203.886 and 487.005 and 223.56
[2]; 1 μM ScIleRS W456A
  Luciferase luminescence, 200 nM RM-A: 72.793 and 72.914 and 17.634
[2]; 1 μM ScIleRS W529A
  Luciferase luminescence, 200 nM RM-A: 72.281 and 54.7 and 8.724
[2]; 1 μM ScIleRS Y571A
  Luciferase luminescence, 200 nM RM-A: 36.141 and 88.172 and 61.066
[2]; 1 μM ScIleRS del_KMSKS
  Luciferase luminescence, 200 nM RM-A: 1832.65 and 1584.88 and 8043.93
[2]; 3 μM C-terminal truncated ScIleRS Wild-type
  Luciferase luminescence, 200 nM RM-A: 109159 and 108773 and 113203
[2]; 3 μM LeuRS (control)
  Luciferase luminescence, 200 nM RM-A: 68.753
[2]; 3 μM ScIleRS D527A
  Luciferase luminescence, 200 nM RM-A: 8750.65 and 7744.02 and 12892
[2]; 3 μM ScIleRS F48A
  Luciferase luminescence, 200 nM RM-A: 2036.32 and 2422.33 and 1991.71
[2]; 3 μM ScIleRS F48Y
  Luciferase luminescence, 200 nM RM-A: 94.913 and 96.194 and 77.119
[2]; 3 μM ScIleRS F191A
  Luciferase luminescence, 200 nM RM-A: 75050.4 and 67335.6 and 51978.3
[2]; 3 μM ScIleRS P90A
  Luciferase luminescence, 200 nM RM-A: 99 and 117.664 and 109.334
[2]; 3 μM ScIleRS R454A
  Luciferase luminescence, 200 nM RM-A: 116437 and 113410 and 111486
[2]; 3 μM ScIleRS R460A
  Luciferase luminescence, 200 nM RM-A: 1567.03 and 1752.95 and 2655.99
[2]; 3 μM ScIleRS R462A
  Luciferase luminescence, 200 nM RM-A: 27718.3 and 25034.8 and 41655.4
[2]; 3 μM ScIleRS T572A
  Luciferase luminescence, 200 nM RM-A: 111134 and 106950 and 105037
[2]; 3 μM ScIleRS V89A
  Luciferase luminescence, 200 nM RM-A: 100692 and 113636 and 118400
[2]; 3 μM ScIleRS W402A
  Luciferase luminescence, 200 nM RM-A: 50779.2 and 51210.1 and 59141.2
[2]; 3 μM ScIleRS W449A
  Luciferase luminescence, 200 nM RM-A: 115488 and 110666 and 106192
[2]; 3 μM ScIleRS W456A
  Luciferase luminescence, 200 nM RM-A: 51.771 and 96.194 and 77.119
[2]; 3 μM ScIleRS W529A
  Luciferase luminescence, 200 nM RM-A: 60.194 and 17.229 and 34.495
[2]; 3 μM ScIleRS Y571A
  Luciferase luminescence, 200 nM RM-A: 11774.7 and 10611.3 and 9010.55
[2]; 3 μM ScIleRS del_KMSKS
  Luciferase luminescence, 200 nM RM-A: 101448 and 100214 and 102556
[3]; RM-A Conc 2 nM
  Luminescence (in vitro protein translation): 190845 and 181490 and 183251
[3]; RM-A Conc 8 nM
  Luminescence (in vitro protein translation): 186149 and 190937 and 185903
[3]; RM-A Conc 20 nM
  Luminescence (in vitro protein translation): 175716 and 187102 and 188453
[3]; RM-A Conc 40 nM
  Luminescence (in vitro protein translation): 163497 and 184611 and 167689
[3]; RM-A Conc 80 nM
  Luminescence (in vitro protein translation): 7616.05 and 18001.9 and 7173.32
[3]; RM-A Conc 200 nM
  Luminescence (in vitro protein translation): 0 and 17.007 and 33.997
[3]; RM-A Conc 800 nM
  Luminescence (in vitro protein translation): 17.076 and 8.503 and 25.498
[3]; RM-A Conc 4000 nM
  Luminescence (in vitro protein translation): 0 (2×) and 50.995
Candida albicans
  MIC: 3 µM (≈ 1.98 µg/mL)
[4]
  bone loss in ovariectomized mice: suppress bone loss
[5]
  binding of RM-A to ScIleRS variant (TSA): blocked the binding
[6]
  ovarian cancer and prostate cancer growth in vivo: inhibit
Osteoclasts (OCs)
  apoptosis of osteoclasts (OCs): potently induce the apoptosis
  more cytotoxic to OCs than to other types of cells, including OC progenitor cells: at least 100 times
[7]
  protein translation rescued: about 1%
